# Assays:
# [1] = Gelation time in polyurethane synthesis model reaction with tin catalyst; conditions: for Gelation time In argon t, s (65ºC) / Gelation time On air t, s (65ºC): 65 °C; for Gelation time In argon t, s (90ºC) / Gelation time On air t, s (90ºC): 90 °C; for Catalyst effect 65°C: gel time with no catalyst (2580 seconds) divided by gel time with 0.5 mol % of the catalyst; for Catalyst effect 90C: gel time with no catalyst (750 seconds) divided by gel time with 0.5 mol % of the catalyst; for Latency: latent if gelation did not occur at room temperature for two hours at a catalyst concentration of 1 mol%
# Procedure: A method for using the above-mentioned tin(IV) complexes to produce polyurethane is described in the following. The method consists of adding a solution of the above-mentioned catalyst in an organic solvent (THF) to a two-component mixture at a given temperature. The method is explained by examples of its implementation: Specifically, to a vigorously stirred solution of 4.5 ml (5.1 g, 8.4 mmol) polyethyleneglycol-600 1.35 ml (1.40 g, 8.3 mmol), hexamethylene diisocyanate was added (temperature control was performed by thermostating the reaction mixture at room temperature, 65°C, 90°C before adding the catalyst), and then the solution of the catalyst to be tested in 0.25 ml in THF was added as fast as possible. The flask with the reactants then was put into an oil bath at room temperature, 65°C or 90°C (depending on the experiment), and then time count was started. The end of reaction was defined as the stop of the magnetic stirrer. The time from start to stop is taken as the gelation time. Experiments conducted in air and in an inert gas atmosphere at different temperatures were compared.
# The molar concentration of the catalyst is given with respect to the molar amount of the polyisocyanate. Table 1: Gelation time with selected tin catalysts.
# [2] = Stability in ambient / moist air (visible change of powder on dry surface); type: physicochemical; conditions: for Air stability: powder poured onto a dry surface, left in ambient air
# Source text: (§1) The alkoxy-based tin complexes (DMAE)2Sn(OtBu)2 and (DMAEIDE)Sn(OtBu)2 were obtained using procedures similar to the synthesis of the phenoxy-complexes. These complexes are stable under dry conditions.
# (§2) Of special stability are complexes based on tetradentate Salen and Salan type ligands such as: […]
# [3] = Stability on dissolution in wet organic solvent; type: physicochemical; conditions: wet / moist organic solvent
# Source text: as §1, §2
# [4] = Solubility of catalyst in organic solvents; type: physicochemical
smiles,measurement,setting,value
"CN(C)CC[O][Sn]([O]CCN(C)C)([O]C(C)(C)C)[O]C(C)(C)C [(DMAE)2Sn(OtBu)2, reference compound]",gel time compared with no catalyst,"[1]; 0.1 mol% concentration, under air",the same as for no catalyst
same,"Gelation time In argon t, s (65ºC)",[1]; c 0.1 % mol.,410 s
same,"Gelation time In argon t, s (90ºC)",[1]; c 0.1 % mol.,185 s
same,"Gelation time On air t, s (65ºC)",[1]; c 0.1 % mol.,2580 s
same,"Gelation time On air t, s (90ºC)",[1]; c 0.1 % mol.,750 s
same,"Gelation time In argon t, s (65ºC)",[1]; c 1 % mol.,230 s
same,"Gelation time In argon t, s (90ºC)",[1]; c 1 % mol.,150 s
same,"Gelation time On air t, s (65ºC)",[1]; c 1 % mol.,540 s
same,"Gelation time On air t, s (90ºC)",[1]; c 1 % mol.,280 s
same,Hygroscopicity,[2],rather hygroscopic
same,Visible change of powder in moist air,[2]; powder poured on a dry surface in moist air,change their appearance within half an hour
same,Decomposition on dissolution in wet organic solvent,[3],instantly leads to the decomposition
C1=NCC[O][Sn]2([O]CCN=Cc3ccccc3[O]2)[O]c2ccccc21 (stereo not drawn),Catalyst effect 65°C,[1],12.3
same,Catalyst effect 90C,[1],6.3
same,Latency,[1],yes
same,Air stability,[2],"good (If there was no visible change within an hour, such as discoloration or melting into droplets due to hygroscopicity, then the stability of the compound was considered good)"
same,Solubility Alkanes,[4],+- (less than 0.01 mol/L)
same,Solubility CH2Cl2/CHCl3,[4],+- (less than 0.01 mol/L)
same,Solubility PhMe,[4],+ (between 0.01 and 0.1 mol/L)
same,Solubility THF,[4],+ (between 0.01 and 0.1 mol/L)
CN1Cc2cc(C(C)(C)C)cc(C(C)(C)C)c2[O][Sn]2([O]c3c(cc(C(C)(C)C)cc3C(C)(C)C)C1)[O]c1c(cc(C(C)(C)C)cc1C(C)(C)C)CN(C)Cc1cc(C(C)(C)C)cc(C(C)(C)C)c1[O]2,Catalyst effect 65°C,[1],2.4
same,Catalyst effect 90C,[1],3.8
same,Latency,[1],yes
same,Air stability,[2],"good (If there was no visible change within an hour, such as discoloration or melting into droplets due to hygroscopicity, then the stability of the compound was considered good)"
same,Solubility Alkanes,[4],++ (between 0.1 and 1.0)
same,Solubility CH2Cl2/CHCl3,[4],+++ (higher than 1.0 mol/L)
same,Solubility PhMe,[4],+++ (higher than 1.0 mol/L)
same,Solubility THF,[4],+++ (higher than 1.0 mol/L)
CC(C)(C)[O][Sn]1([O]C(C)(C)C)[O]c2c(cc(C(C)(C)C)cc2C(C)(C)C)CN2CCN(CC2)Cc2cc(C(C)(C)C)cc(C(C)(C)C)c2[O]1,Catalyst effect 65°C,[1],5.7
same,Catalyst effect 90C,[1],2.8
same,Latency,[1],yes
same,Air stability,[2],excellent (Excellent stability was attributed to compounds for which no visible change was found within 24 hours)
same,Solubility Alkanes,[4],+- (less than 0.01 mol/L)
same,Solubility CH2Cl2/CHCl3,[4],+++ (higher than 1.0 mol/L)
same,Solubility PhMe,[4],+++ (higher than 1.0 mol/L)
same,Solubility THF,[4],++ (between 0.1 and 1.0)

# Reference: patent EP4534577A1, “NON-TOXIC LATENT POLYMERIZATION CATALYSTS FOR POLYURETHANES BASED ON TIN (IV) CHELATE COMPLEXES” (Tech Synt Ltd, priority 2023, dated 2025)
